# Experimental data: article PMC10147923, “Pain-causing stinging nettle toxins target TMEM233 to modulate NaV1.7 function” (Nature Communications, 2023)
# “And” between values parts separate entries of the source, which are not always exact repeats. Equal values may be shown once. Read-outs that look alike come from different tables or passages of the source. Positions of bridges follow the written chain, without caps; N, C: chain ends. Residues, ends and D or L forms follow the SMILES beside them.
# What was measured:
# wild-type C57BL/6 mice = assay: Nocifensive behaviors after intraplantar injection, wild-type mice; type: in vivo, mouse; details: wt
# Procedure: Nocifensive responses to intraplantar administration of ExTxA (5–10 nM) were assessed as previously described. In brief, ExTxA was diluted in sterile saline/0.1% BSA and administered by an intraplantar injection (40 μL) into a single hind paw of Tmem233^Cre/Cre, NaV1.7^Advill and wild-type littermate controls. Pain behaviors, consisting of paw licks or flinches, were counted from video recordings by a blinded investigator for up to 60 min following injection.
# Drosophila melanogaster = type: in vivo; details: injection 0.5 nmol, affected/total
# Procedure: To test for insecticidal activity, we injected ExTxA into three-day old Drosophila melanogaster females (average weight 0.875 mg). In total 77 D. melanogaster were used for this study: 52 individuals were each injected with 0.5 nmol (50 nL of a […] solution) ExTxA, while 25 individuals served as control group and were injected with vehicle control (3% acetonitrile, 0.1% bovine serum albumin in water) and scored by a blinded observer.
# hNaV1.3 = assay: Persistent current, HEK293-hNaV1.3/β1; type: cell-based, human; details: ExTxA 1 µM
# hNaV1.7 = assay: Persistent current, Xenopus oocytes expressing hNaV1.7 (two-electrode voltage clamp); type: cell-based, human; details: ExTxA 1 µM
# Procedure: (§1) Human NaV1.7 and TMEM233 genes cloned into pcDNA3.1 plasmid were linearized with NotI restriction enzyme and used as template for cRNA synthesis using T7 polymerase (mMessage mMachine Kit; Life Technologies). Stage V/VI oocytes were injected with 5–20 ng total RNA, then incubated at 17 °C for 1–3 days in 50% Leibovitz’s L-15 medium (Gibco), supplemented with 25 µg/mL gentamicin, 25 µg/mL streptomycin, and 2.5% fetal horse serum. Two-electrode voltage clamp (Axoclamp 900 A amplifier; Axon Instruments) were performed at room temperature in ND96 solution (in mM: 96 NaCl, 2 KCl, 1 MgCl2, 1.8 CaCl2, 5 HEPES; pH 7.4 with NaOH) with a ∼40 μL recording chamber. In experiments where ExTxA was added, solutions were supplemented with 0.05% fatty-acid free bovine serum albumin. Borosilicate glass microelectrodes had resistances of 0.2–0.8 MΩ when backfilled with 3 M KCl. Data were digitized at 20 kHz and filtered at 2 kHz using pCLAMP 11 software (Digidata 1550B; Axon Instruments).
# ExTxA activity was assayed at 1 µM, analyzing the current from a 50 ms step to −10 mV every 10 s, from a holding volage of −80 mV. For all other voltage protocols, oocytes were held at −90 mV. Activation curves were obtained by measuring peak currents during steps from −100 mV to +60 mV in +10 mV increments applied every 10 s, with G/Gmax plot between −80 mV and +10 mV. […]
# [1] = tested on: total NaV current in wild-type DRG neurons; assay: Persistent NaV current, wild-type littermate DRG neurons; type: cell-based, mouse; details: ExTxA 30 nM; wildtype; mean ± SEM, n = 6
# NaV1.7/TMEM233 = NaV1.7/TMEM233 (Homo sapiens, UniProt B4DJY2+Q15858); type: cell-based
# Procedure: Current-voltage (IV) curves were determined in HEK-NaV1.7 cells, in the absence and presence of TMEM233, from a series of step pulses (500 ms) ranging from −110 to +55 mV (5 mV increments, repetition interval 5 s) before and after incubation with ExTxA (1 μM) from a holding potential of −90 mV. Currents were converted to conductance (G) using G = I/(V − Vrev), with Vrev being the reversal potential, plotted against voltage and fitted with a Boltzmann equation to obtain GV (conductance-voltage) curves. Voltage dependence of steady-state fast inactivation was determined by a subsequent 10 ms pulse to −20 mV immediately following the 500 ms depolarization step detailed above to assess the available non-inactivated channels.
# hNaV1.7/TMEM233 [2] = assay: Persistent current, CHO hNaV1.7/TMEM233; type: cell-based, human; details: ExTxA 1 µM; hNaV1.7/TMEM233; mean ± SEM, n = 16
# hNaV1.7/TMEM233 [3] = assay: Persistent current, Xenopus oocytes hNaV1.7/TMEM233; type: cell-based, human
# Procedure: as §1
# ExTxA activity was assayed at 1 µM, analyzing the current from a 50 ms step to −10 mV every 10 s, from a holding volage of −80 mV. For all other voltage protocols, oocytes were held at −90 mV. Activation curves were obtained by measuring peak currents during steps from −100 mV to +60 mV in +10 mV increments applied every 10 s, with G/Gmax plot between −80 mV and +10 mV. Steady-state inactivation curves plot the peak current at a test pulse of −10 mV, after a 200 ms pre-pulse from −100 mV to +40 mV in +10 mV increments applied every 10 s. Slow inactivation curves plot the peak current at a test pulse of −10 mV, after a 10 s pre-pulse from −110 mV to −10 mV in +10 mV increments applied every 20 s. To determine recovery from inactivation, oocytes were first stepped to −10 mV, then rested at −90 mV for a variable time interval indicated in the graph, then a second −10 mV depolarization applied to determine the fraction of channls recovered. This protocol was applied every 13 s (time between each initial −10 mV step).
# TMEM233 = TMEM233 (Homo sapiens, UniProt B4DJY2); assay: Currents in Cos-1 cells transfected with TMEM233 only; type: cell-based
# Procedure: Whole-cell patch clamp experiments involving HEK293, COS-1, CHO, ND7/23, F11, SH-SY5Y and TE-671 cells were performed on a QPatch II automated electrophysiology platform (Sophion Bioscience, Ballerup, Denmark) as previously described. Cells at approximately 70–80% confluency were harvested from T75 flasks using TrypLE Express at 37 °C for 2–5 min and resuspended in DMEM with 25 mM HEPES (Sigma-Aldrich, NSW, Australia), 100 U/mL Penicillin-Streptomycin (Gibco) and 40 µg/mL trypsin inhibitor from Glycine max (soybean) (Sigma Aldrich) prior to recovery on a QStirrer (Sophion) for 30 min. 16-channel patch plates with a patch hole diameter of 1 μm and resistance of 2 ± 0.02 MΩ were used. Cell positioning and sealing parameters were as follows: positioning pressure −60 mbar, minimum seal resistance 0.1 GΩ, holding potential −100 mV, holding pressure −20 mbar. Whole-cell currents were filtered at 5 kHz and acquired at 25 kHz. Series resistance compensation was used and set to 70%.
# [4] = individual cells, paired with buffer
# TMEM233, sequence (B4DJY2 whole entry): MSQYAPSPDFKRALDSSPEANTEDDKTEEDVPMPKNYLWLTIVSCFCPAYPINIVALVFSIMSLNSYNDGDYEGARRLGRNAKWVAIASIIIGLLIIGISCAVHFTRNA
smiles,measurement,setting,value
"CC[C@H](C)[C@@H]1NC(=O)[C@H](CCCNC(=N)N)NC(=O)[C@H](Cc2ccccc2)NC(=O)[C@H](CC(C)C)NC(=O)[C@H](CO)NC(=O)[C@@H]2CSSC[C@@H]3NC(=O)[C@H]([C@@H](C)O)NC(=O)[C@H](CSSC[C@H](NC(=O)[C@H](CCCNC(=N)N)NC(=O)[C@@H]4CCCN4C(=O)[C@@H](N)CC(C)C)C(=O)N[C@@H](CC(=O)O)C(=O)N[C@@H](CO)C(=O)N4CCC[C@H]4C(=O)N[C@@H](Cc4ccccc4)C(=O)N2)NC(=O)[C@H](CCCCN)NC(=O)[C@H](CC(=O)O)NC(=O)CNC(=O)[C@H](CSSC[C@@H](C(=O)N[C@H](C(=O)N2CCC[C@H]2C(=O)N[C@@H](CC(=O)O)C(=O)N[C@H](C(=O)O)C(C)C)C(C)C)NC(=O)[C@H](CC(C)C)NC(=O)CNC(=O)[C@H](Cc2ccccc2)NC(=O)[C@H]([C@@H](C)CC)NC(=O)[C@@H]2CCCN2C(=O)[C@H](CC(C)C)NC(=O)[C@@H]2CCCN2C(=O)[C@H](C(C)C)NC3=O)NC(=O)[C@H](CC(C)C)NC(=O)CNC1=O [ExTxA, excelsatoxin A] (H-LPRCDSPFCSLFRIGLCGDKCTCVPLPIFGLCVPDV-OH; disulfide 4-21, 9-23, 17-32)",cumulative flinches (60 min),"wild-type C57BL/6 mice; i.pl. ExTxA 10 nM, 40 μL, mean, n = 4",319.3 ± 21.9 and 319.3
same,cumulative flinches (60 min),"wild-type C57BL/6 mice; i.pl. ExTxA 10 nM, individual animals",318 and 332 and 366 and 261
same,ExTxA-induced pain behaviours (cumulative paw licks and flinches over 40 min),"wild-type C57BL/6 mice; i.pl. ExTxA 10 nM, mean ± SEM, n = 17",234.2 ± 27.7
same,"nocifensive behaviors, 0-40 min combined (Fig. 3g)","wild-type C57BL/6 mice; 0-40 min, individual animals, one line each (n = 17)",186 and 191 and 216 and 226 and 100 and 220 and 228 and 281 and 150 and 168 and 177 and 96 and 381 and 537 and 153
same,"nocifensive behaviors, 0-40 min combined, mean (Fig. 3g)","wild-type C57BL/6 mice; 0-40 min, mean, n = 17",234.2
same,paralysis,"Drosophila melanogaster; after 15 min, control 1/25",2/52
same,death,"Drosophila melanogaster; after 2 h, control 0/25",1/52
same,persistent current (I40 ms/Ipeak),hNaV1.3; individual cells,0.0261 and 0.07967 and 0.01209 and 0.007119 and 0.06666 and 0.04746 and 0.006524 and 0.006085 and 0.07156 and 0.01737 and 0.02558 and -0.00907 and 0.002307 and 0.02027 (2×) and 0.01594 and 0.04935 and 0.06033 and 0.03164 and 0.000895 and 0.0334 and 0.008347 and 0.02877
same,Δ persistent current (I40 ms/Ipeak; buffer cf. ExTxA),hNaV1.3; mean,0.0265 ± 0.0049 and 0.02645
same,Xenopus oocyte persistent current (I40 ms/Ipeak),"hNaV1.7; hNaV1.7 alone, mean ± SEM, n = 6",0.081 ± 0.012
same,persistent current (I40 ms/Ipeak),hNaV1.7; individual oocytes,0.01056 and 0.002122 and 0.005805 and 0.01324 and 0.01132 and 0.02838 and 0.05496 and 0.01837 and -0.00648 and -0.01247 and 0.02865
same,ExTxA-induced persistent current (I40ms/Ipeak; nA) in DRG neurons,[1],0.573 ± 0.086
same,depolarizing shift in the voltage-dependence of fast inactivation,NaV1.7/TMEM233,18.0 mV
same,hyperpolarizing shift in the voltage-dependence of activation,NaV1.7/TMEM233,11.6 mV
same,V50 of Activation,"NaV1.7/TMEM233; ExTxA 1 µM, NaV1.7/TMEM233, mean ± SEM, n = 7, control -24.31 ± 1.11",-35.92 ± 1.00 mV
same,V50 of Inactivation,"NaV1.7/TMEM233; ExTxA 1 µM, NaV1.7/TMEM233, mean ± SEM, n = 8, control -67.77 ± 1.12",-49.80 ± 3.20 mV
same,"V50 of Activation, mean of differences (B - A)","NaV1.7/TMEM233; ExTxA vs. buffer, paired t test, 7 pairs",-11.61
same,"V50 of Inactivation, mean of differences (B - A)","NaV1.7/TMEM233; ExTxA vs. buffer, paired t test, 8 pairs",17.97
same,V50 of Activation,NaV1.7/TMEM233; [4],-34.91 and -38.74 and -38.17 and -35.28 and -37.07 and -36.44 and -30.84
same,V50 of Inactivation,NaV1.7/TMEM233; [4],-45.67 and -44.27 and -43.05 and -47.34 and -66.38 and -46.52 and -43.25 and -61.92
same,CHO cells persistent current (I40 ms),hNaV1.7/TMEM233 [2],-2.010 ± 0.277 nA
same,Xenopus oocyte persistent current (I40 ms/Ipeak),hNaV1.7/TMEM233 [3],0.727 ± 0.020
same,"Nav:TMEM, 1:1 molar, mean (persistent current)","hNaV1.7/TMEM233 [3]; Supplementary Fig 1f, 1 uM, toxin not named, mean of n = 6, Control mean 0.0806, n = 6",0.727
same,"Nav:TMEM, 1:1 molar, individual values (persistent current)","hNaV1.7/TMEM233 [3]; Supplementary Fig 1f, 1 uM, toxin not named, single replicates",0.6869 and 0.7919 and 0.702 and 0.7846 and 0.7038 and 0.6927
same,"Nav:TMEM, 1:1 molar, difference between means (1 uM - Control) ± SEM","hNaV1.7/TMEM233 [3]; Supplementary Fig 1f, unpaired t test P <0.0001, 95% CI 0.5949 to 0.6979",0.6464 ± 0.0231
same,ExTxA-induced persistent current,TMEM233,-7.493 ± 8.833
same,"ExTxA-induced currents, TMEM233 alone",TMEM233; cells lacking endogenous NaV currents,did not result in either voltage-gated or ExTxA-induced currents
